# PubChem BioAssay (NCI)
#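 96-well plates; 48 h exposure; 5 concentrations. Endpoints by linear interpolation between flanking doses. Not reached: highest tested concentration assigned. TGI is the concentration that stops growth completely.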
# Experiments:
# Assay in all cases: inhibition of tumour cell growth, NCI panel, 48 h
# [1] = system: T-47D breast
# [2] = system: SK-MEL-2 melanoma
# [3] = system: PC-3 prostate
# [4] = system: SK-OV-3 ovarian
# [5] = system: U251 CNS
# [6] = system: NCI/ADR-RES ovarian
# [7] = system: COLO 205 colon
# [8] = system: ACHN renal
# [9] = system: SF-539 CNS
# [10] = system: HCT-15 colon
# [11] = system: NCI-H226 lung
# [12] = system: HOP-62 NSCLC
# [13] = system: MDA-N
# [14] = system: SNB-75 CNS
# [15] = system: MDA-MB-435
# [16] = system: OVCAR-4 ovarian
# [17] = system: MCF7 breast
# [18] = system: NCI-H23 lung
# [19] = system: RXF 393 renal
# [20] = system: K-562 leukemia
# [21] = system: UACC-62 melanoma
# [22] = system: SNB-19 CNS
# [23] = system: NCI-H460 lung
# [24] = system: TK-10 renal
# [25] = system: CCRF-CEM leukemia
# [26] = system: UACC-257 melanoma
# [27] = system: UO-31 renal
# [28] = system: 786-0 renal
# [29] = system: NCI-H522 lung
# [30] = system: SW-620 colon
# [31] = system: M14 melanoma
# [32] = system: RPMI-8226 leukemia
# [33] = system: BT-549 breast
# [34] = system: OVCAR-5 ovarian
# [35] = system: IGROV1 ovarian
# [36] = system: SF-268 CNS
# [37] = system: KM12 colon
# [38] = system: HCT-116 colon
# [39] = system: SR leukemia
# [40] = system: HS 578T breast
# [41] = system: HT29 colon
# [42] = system: DU-145 prostate
# [43] = system: SF-295 CNS
# [44] = system: MDA-MB-231 breast
# [45] = system: EKVX NSCLC
# [46] = system: OVCAR-3 ovarian
# [47] = system: SK-MEL-28 melanoma
# [48] = system: MOLT-4 leukemia
# [49] = system: OVCAR-8 ovarian
# [50] = system: A549 NSCLC
# [51] = system: SN12C renal
# [52] = system: A498 renal
# [53] = system: SK-MEL-5 melanoma
# [54] = system: HOP-92 NSCLC
# [55] = system: HCC-2998 colon
# [56] = system: CAKI-1 renal
# [57] = system: LOX IMVI melanoma
# [58] = system: HL-60(TB) leukemia
# [59] = system: MALME-3M melanoma
compound,measurement,setting,value
O=C(O)CCc1nc2c(n1-c1ccccc1)C(=O)c1ccccc1C2=O,TGI,[1],> 100 µM
same,TGI,[2],> 100 µM
same,TGI,[3],> 100 µM
same,TGI,[4],> 100 µM
same,TGI,[5],> 100 µM
same,TGI,[6],> 100 µM
same,TGI,[7],> 100 µM
same,TGI,[8],> 100 µM
same,TGI,[9],> 100 µM
same,TGI,[10],> 100 µM
same,TGI,[11],> 100 µM
same,TGI,[12],> 100 µM
same,TGI,[13],> 100 µM
same,TGI,[14],> 100 µM
same,TGI,[15],> 100 µM
same,TGI,[16],> 100 µM
same,TGI,[17],> 100 µM
same,TGI,[18],> 100 µM
same,TGI,[19],> 100 µM
same,TGI,[20],> 100 µM
same,TGI,[21],> 100 µM
same,TGI,[22],> 100 µM
same,TGI,[23],> 100 µM
same,TGI,[24],> 100 µM
same,TGI,[25],> 100 µM
same,TGI,[26],> 100 µM
same,TGI,[27],> 100 µM
same,TGI,[28],> 100 µM
same,TGI,[29],> 100 µM
same,TGI,[30],> 100 µM
same,TGI,[31],> 100 µM
same,TGI,[32],> 100 µM
same,TGI,[33],> 100 µM
same,TGI,[34],> 100 µM
same,TGI,[35],> 100 µM
same,TGI,[36],> 100 µM
same,TGI,[37],> 100 µM
same,TGI,[38],> 100 µM
same,TGI,[39],> 100 µM
same,TGI,[40],> 100 µM
same,TGI,[41],> 100 µM
same,TGI,[42],> 100 µM
same,TGI,[43],> 100 µM
same,TGI,[44],> 100 µM
same,TGI,[45],> 100 µM
same,TGI,[46],> 100 µM
same,TGI,[47],> 100 µM
same,TGI,[48],> 100 µM
same,TGI,[49],> 100 µM
same,TGI,[50],> 100 µM
same,TGI,[51],> 100 µM
same,TGI,[52],> 100 µM
same,TGI,[53],> 100 µM
same,TGI,[54],61.3 µM
same,TGI,[55],> 100 µM
same,TGI,[56],> 100 µM
same,TGI,[57],> 100 µM
same,TGI,[58],> 100 µM
O=C1c2cccc([N+](=O)[O-])c2C(=O)N1Cc1ccccc1,TGI,[1],> 100 µM
same,TGI,[2],> 100 µM
same,TGI,[3],> 100 µM
same,TGI,[4],> 100 µM
same,TGI,[5],> 100 µM
same,TGI,[6],> 100 µM
same,TGI,[7],> 100 µM
same,TGI,[8],> 100 µM
same,TGI,[9],> 100 µM
same,TGI,[10],> 100 µM
same,TGI,[11],> 100 µM
same,TGI,[12],> 100 µM
same,TGI,[13],> 100 µM
same,TGI,[14],> 100 µM
same,TGI,[15],> 100 µM
same,TGI,[16],> 100 µM
same,TGI,[17],> 100 µM
same,TGI,[18],> 100 µM
same,TGI,[19],> 100 µM
same,TGI,[20],> 100 µM
same,TGI,[21],> 100 µM
same,TGI,[22],> 100 µM
same,TGI,[23],> 100 µM
same,TGI,[24],> 100 µM
same,TGI,[25],> 100 µM
same,TGI,[26],> 100 µM
same,TGI,[27],> 100 µM
same,TGI,[28],> 100 µM
same,TGI,[29],> 100 µM
same,TGI,[30],> 100 µM
same,TGI,[31],> 100 µM
same,TGI,[32],> 100 µM
same,TGI,[33],> 100 µM
same,TGI,[34],> 100 µM
same,TGI,[35],> 100 µM
same,TGI,[36],> 100 µM
same,TGI,[37],> 100 µM
same,TGI,[38],> 100 µM
same,TGI,[39],> 100 µM
same,TGI,[40],> 100 µM
same,TGI,[41],> 100 µM
same,TGI,[42],> 100 µM
same,TGI,[43],> 100 µM
same,TGI,[44],> 100 µM
same,TGI,[45],> 100 µM
same,TGI,[46],> 100 µM
same,TGI,[47],> 100 µM
same,TGI,[48],> 100 µM
same,TGI,[49],> 100 µM
same,TGI,[50],> 100 µM
same,TGI,[51],> 100 µM
same,TGI,[52],> 100 µM
same,TGI,[53],> 100 µM
same,TGI,[54],> 100 µM
same,TGI,[55],> 100 µM
same,TGI,[56],> 100 µM
same,TGI,[57],> 100 µM
same,TGI,[58],> 100 µM
CC(N=NNc1ccc(-c2nc3ccccc3[nH]2)cc1)C(=O)O (centres undefined),TGI,[1],> 100 µM
same,TGI,[2],> 100 µM
same,TGI,[3],> 100 µM
same,TGI,[4],> 100 µM
same,TGI,[5],60.8 µM
same,TGI,[6],90.6 µM
same,TGI,[7],> 100 µM
same,TGI,[8],> 100 µM
same,TGI,[9],> 100 µM
same,TGI,[10],61.6 µM
same,TGI,[11],> 100 µM
same,TGI,[12],> 100 µM
same,TGI,[13],> 100 µM
same,TGI,[14],> 100 µM
same,TGI,[15],> 100 µM
same,TGI,[16],> 100 µM
same,TGI,[17],34.1 µM
same,TGI,[18],> 100 µM
same,TGI,[19],> 100 µM
same,TGI,[20],> 100 µM
same,TGI,[59],> 100 µM
same,TGI,[22],> 100 µM
same,TGI,[23],79 µM
same,TGI,[24],> 100 µM
same,TGI,[25],> 100 µM
same,TGI,[26],> 100 µM
same,TGI,[27],> 100 µM
same,TGI,[28],89.9 µM
same,TGI,[29],75.7 µM
same,TGI,[30],> 100 µM
same,TGI,[31],> 100 µM
same,TGI,[32],> 100 µM
same,TGI,[33],57.6 µM
same,TGI,[34],> 100 µM
same,TGI,[35],> 100 µM
same,TGI,[36],> 100 µM
same,TGI,[37],> 100 µM
same,TGI,[38],> 100 µM
same,TGI,[39],> 100 µM
same,TGI,[40],> 100 µM
same,TGI,[41],> 100 µM
same,TGI,[42],> 100 µM
same,TGI,[43],72.1 µM
same,TGI,[44],> 100 µM
same,TGI,[45],> 100 µM
same,TGI,[46],54.7 µM
same,TGI,[47],> 100 µM
same,TGI,[48],> 100 µM
same,TGI,[49],> 100 µM
same,TGI,[50],> 100 µM
same,TGI,[51],> 100 µM
same,TGI,[52],> 100 µM
same,TGI,[53],> 100 µM
same,TGI,[54],> 100 µM
same,TGI,[56],> 100 µM
same,TGI,[57],> 100 µM
same,TGI,[58],> 100 µM
N=C1C(O)C2(I)c3ccccc3N3C(=N)C(O)C4c5ccccc5N1C4C32 (centres undefined),TGI,[1],> 100 µM
same,TGI,[2],> 100 µM
same,TGI,[3],> 100 µM
same,TGI,[4],> 100 µM
same,TGI,[5],43.9 µM
same,TGI,[6],> 100 µM
same,TGI,[7],> 100 µM
same,TGI,[8],> 100 µM
same,TGI,[10],> 100 µM
same,TGI,[12],> 100 µM
same,TGI,[13],> 100 µM
same,TGI,[14],> 100 µM
same,TGI,[15],37.9 µM
same,TGI,[16],30.1 µM
same,TGI,[17],> 100 µM
same,TGI,[18],> 100 µM
same,TGI,[19],> 100 µM
same,TGI,[20],> 100 µM
same,TGI,[59],> 100 µM
same,TGI,[21],> 100 µM
same,TGI,[22],> 100 µM
same,TGI,[23],> 100 µM
same,TGI,[24],> 100 µM
same,TGI,[25],18.6 µM
same,TGI,[26],> 100 µM
same,TGI,[27],> 100 µM
same,TGI,[28],> 100 µM
same,TGI,[29],> 100 µM
same,TGI,[30],> 100 µM
same,TGI,[31],> 100 µM
same,TGI,[32],> 100 µM
same,TGI,[33],> 100 µM
same,TGI,[34],> 100 µM
same,TGI,[35],> 100 µM
same,TGI,[36],> 100 µM
same,TGI,[37],34.8 µM
same,TGI,[38],> 100 µM
same,TGI,[39],> 100 µM
same,TGI,[40],> 100 µM
same,TGI,[41],> 100 µM
same,TGI,[42],> 100 µM
same,TGI,[43],> 100 µM
same,TGI,[44],67.8 µM
same,TGI,[45],> 100 µM
same,TGI,[46],> 100 µM
same,TGI,[47],> 100 µM
same,TGI,[48],> 100 µM
same,TGI,[49],> 100 µM
same,TGI,[50],> 100 µM
same,TGI,[51],> 100 µM
same,TGI,[52],> 100 µM
same,TGI,[53],> 100 µM
same,TGI,[54],> 100 µM
same,TGI,[56],> 100 µM
same,TGI,[57],> 100 µM
same,TGI,[58],79.4 µM
